Source: PubChem BioAssay (NCI)
Several values for one entry are separate records, joined by “and”; a condition that tells them apart may be missing. Identical values can stand only once.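 The compound was tested at five concentrations on cells cultured in 96-well plates, with a 48-hour exposure period. GI50 marks 50% less growth. The concentration for full growth arrest is given as TGI.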

Key:
Test in all cases: NCI anticancer screen, dose series, 48 h
M19-MEL melanoma = test system: M19-MEL melanoma
DMS 114 small cell lung = test system: DMS 114 small cell lung
HCT-15 colon = test system: HCT-15 colon
DMS 273 small cell lung = test system: DMS 273 small cell lung
SK-MEL-28 melanoma = test system: SK-MEL-28 melanoma
A498 renal = test system: A498 renal
SNB-78 CNS = test system: SNB-78 CNS
KM20L2 colon = test system: KM20L2 colon
HOP-92 NSCLC = test system: HOP-92 NSCLC
NCI-H522 lung = test system: NCI-H522 lung
CAKI-1 renal = test system: CAKI-1 renal
786-0 renal = test system: 786-0 renal
OVCAR-3 ovarian = test system: OVCAR-3 ovarian
MDA-MB-435 = test system: MDA-MB-435

Row | SMILES | TGI (M19-MEL melanoma) [µM] | TGI (DMS 114 small cell lung) [µM] | TGI (HCT-15 colon) [µM] | TGI (DMS 273 small cell lung) [µM] | TGI (SK-MEL-28 melanoma) [µM] | TGI (A498 renal) | TGI (SNB-78 CNS) [µM] | TGI (KM20L2 colon) [µM] | TGI (HOP-92 NSCLC) | TGI (NCI-H522 lung) | TGI (CAKI-1 renal) [µM] | TGI (786-0 renal) [µM] | TGI (OVCAR-3 ovarian) [µM] | TGI (MDA-MB-435) [µM] | GI50 (A498 renal) | GI50 (HOP-92 NSCLC) | GI50 (NCI-H522 lung) | GI50 (OVCAR-3 ovarian)
1 | COc1ccc2c(c1)C=C(C(C)(C)C)NS2(=O)=O | > 100 | > 100 | > 100 | > 100 | > 100 | > 100 µM | > 100 | > 100 | > 100 µM | > 100 µM | > 100 | > 100 | > 100 | – | – | – | – | –
2 | CCOc1ncnc2ccc(Cl)c(I)c12 | > 100 | > 100 | > 100 | > 100 | > 100 | > 100 µM | – | > 100 | – | – | > 100 | > 100 | > 100 | – | – | – | – | –
3 | Nc1nc(Cl)c(C=O)c(NCC2(CO)CCC2)n1 | – | – | 25.3 | – | > 100 | 67.7 µM | – | – | 31.1 µM | 14.7 µM | 33.9 | > 100 | 42.9 | > 100 | – | – | – | –
4 | NS(=O)(=O)c1nnc(NC(=O)/C=C/C(=O)O)s1 | – | – | > 100 | – | > 100 | > 100 µM | – | – | > 100 µM | > 100 µM | > 100 | > 100 | > 100 | > 100 | – | – | – | –
5 | O=C1c2cc([N+](=O)[O-])sc2C(=O)c2cc([N+](=O)[O-])sc21 | – | – | 3.55 | – | 8.3 | 32.7 µM | – | – | 4.04 µM | 3.02 µM | 8.81 | 6.78 | 6.65 | 4.73 | – | – | – | –
6 | COc1ncc(C#CC(=O)c2ccccc2)c(OC)n1 | – | – | 3.18 | – | 11.4 | 32.4 µM | – | – | 4.3 µM | 2.81 µM | 7.3 | 4.2 | 10.3 | 11.5 | – | – | – | –
7 | COc1ccc(-c2nc(SC)n(C3OC(COC(C)=O)C(OC(C)=O)C(OC(C)=O)C3OC(C)=O)c(=O)c2C#N)cc1 (stereo not drawn) | – | – | > 100 | – | > 100 | 44.5 µM and > 100 µM | 57.8 | > 100 | 52.9 µM and > 100 µM | 72.7 µM and > 100 µM | > 100 | > 100 | > 100 | > 100 | 8.43 µM and 44.1 µM | 14.1 µM and 39.2 µM | 18.7 µM and > 100 µM | 38.2 µM and > 100 µM
8 | N#CC1=C(S)N(C2OC(CO)C(O)C(O)C2O)C(c2ccccc2)=CC1c1cccs1 (stereo not drawn) | – | – | > 100 | – | 41.4 | > 10 µM | – | – | 68.8 µM | 47.5 µM | 50.4 | 35.7 | 80.2 | 44.1 | – | – | – | –
9 | Nc1nc(Cc2ccccc2)nc(Cc2ccccc2)c1-c1ccccc1 | – | – | 84.3 | – | > 100 | 46.7 µM | – | – | 59.6 µM | 46.1 µM | 96.1 | 70.5 | 37.2 | 59.3 | – | – | – | –
10 | CCOC1=NC(C(F)(F)F)(C(F)(F)F)N=C(N2CCCCC2)O1 | – | – | > 100 | – | > 100 | > 100 µM | – | – | > 100 µM | > 100 µM | > 100 | > 100 | > 100 | > 100 | – | – | – | –
11 | CC(c1ccccc1)C(O)S(=O)(=O)O (stereo not drawn) | > 100 | > 100 | > 100 | > 100 | > 100 | > 100 µM | > 100 | > 100 | > 100 µM | > 100 µM | – | > 100 | > 100 | – | – | – | – | –
12 | C=COC(=O)N1C2CCCC(Cl)(C(C)=O)C1CC2 (stereo not drawn) | – | – | > 100 | – | > 100 | > 100 µM | – | – | > 100 µM | > 100 µM | > 100 | > 100 | > 100 | > 100 | – | – | – | –
13 | CC1OC(OC2C[C@](O)(C(=O)CBr)Cc3c(O)c4c(c(O)c32)C(=O)c2ccccc2C4=O)C(F)C(O)C1O (stereo partly drawn) | – | – | 21.6 | – | > 66.1 | 30.9 µM | – | – | 40.6 µM | 23.5 µM | 49 | > 59.5 | 42.9 | 31.2 | – | – | – | –
14 | COc1cc(C(=O)N(C(=S)OC23CC4CC(CC(C4)C2)C3)c2ccccc2)cc(OC)c1OC | – | – | > 100 | – | > 100 | 92.5 µM | – | – | > 100 µM | 25.9 µM | > 100 | > 100 | > 100 | > 100 | – | – | – | –
15 | COc1ccc(S(=O)(=O)Nc2ccc(-c3csc(N4C(=O)/C(=C/c5cccs5)N=C4c4ccccc4)n3)cc2)cc1Cl | – | – | 70.6 | – | > 100 | 65.2 µM | – | – | 72 µM | 62.8 µM | > 100 | > 100 | > 100 | > 100 | – | – | – | –
16 | O=C1CSC(c2cccc(Oc3ccccc3)c2)N1c1cccc(Cl)c1Cl (stereo not drawn) | – | – | 46.8 | – | > 100 | 93.5 µM | – | – | 45.8 µM | 61.1 µM | > 100 | 87.7 | > 100 | 56.1 | – | – | – | –
